Experiments:
SbnA [1] = molecular target: T1, SbnA (Staphylococcus aureus, UniProt A6QDA0); test: PNP-coupled continuous assay (MESG, […] nm); type: biochemical
T1 construct: synthetic codon-optimised gene in pSH21p::TrxA, His-Trx tag with TEV site, tag cleaved and removed; expressed in E. coli BL21 ArcticExpress (DE3)

SbnA [2] = molecular target: T1, SbnA; test: PNP-coupled continuous assay (MESG, […] nm), global fit; type: biochemical
SbnA [3] = molecular target: T1, SbnA; test: PNP-coupled continuous assay, global fit to ping-pong with substrate inhibition; type: biochemical; conditions: substrate inhibition (unproductive binding to internal aldimine); 0.035-0.720 mM L-OPS; 50 mM HEPES pH 7.8, 1 mM TCEP, 25 °C
[4] = tested on: N[C@@H](COP(=O)(O)O)C(=O)O; test: purified protein; conditions: co-substrate L-Glu 0.1-150 mM, 50 mM HEPES pH 7.8, 1 mM TCEP, 25 °C

T1 sequence (A6QDA0 whole entry): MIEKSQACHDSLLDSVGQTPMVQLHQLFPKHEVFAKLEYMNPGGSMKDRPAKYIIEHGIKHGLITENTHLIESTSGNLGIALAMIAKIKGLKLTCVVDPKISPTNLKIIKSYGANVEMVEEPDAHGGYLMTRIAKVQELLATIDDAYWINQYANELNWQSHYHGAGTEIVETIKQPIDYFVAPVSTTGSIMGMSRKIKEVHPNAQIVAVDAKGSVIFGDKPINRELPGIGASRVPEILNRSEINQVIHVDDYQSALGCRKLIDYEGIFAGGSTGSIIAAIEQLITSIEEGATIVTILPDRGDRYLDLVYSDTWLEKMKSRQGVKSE

Compound	IC50 (SbnA [1])	Ki (SbnA [2])	further results
O=C(O)CC(C(=O)O)c1ccccc1 (racemic) [compound 2, 2-phenylsuccinic acid]	366 ± 37 µM	124 ± 13 µM	–
N[C@@H](CCC(=O)O)C(=O)O [L-glutamate]	–	–	Ki (SbnA [3]): 25.75 ± 7.93 mM
O=C(O)CC(O)(CC(=O)O)C(=O)O [citrate]	800 ± 100 µM	900 ± 200 µM	–
O=C(O)/C=C(\C(=O)O)c1ccccc1 [compound 3, Z-2-phenylbut-2-enedioic acid]	37 ± 3 µM	16 ± 2 µM	–
O=C(O)CCC(=O)C(=O)O [α-ketoglutarate]	2600 ± 200 µM	–	–
SbnA (Staphylococcus aureus subsp. aureus str. Newman)	–	–	Km [4]: 0.027 ± 0.006 mM; kcat/Km [4]: 170000 M⁻¹ s⁻¹
